One block for each molecule: values may come before it. Activity calls are given as the source filed them. The calls are words filed in the database; no cut-off is given here.
How the values were obtained:
Eca-109/VCR [1] = assay: Induction of apoptosis in human Eca-109/VCR cells assessed as late apoptotic cells at 5 uM incubated for 60 hrs in presence of vincristine by Annexin V-FITC/PI staining based flow cytometric analysis (reference value: 0.56%); type: functional
Eca-109/VCR [2] = assay: Induction of apoptosis in human Eca-109/VCR cells assessed as viable cells at 5 uM incubated for 60 hrs in presence of vincristine by Annexin V-FITC/PI staining based flow cytometric analysis (reference value: 97.3%); type: functional; conditions: read-out: Activity
Eca-109/VCR [3] = assay: Induction of apoptosis in human Eca-109/VCR cells assessed as necrotic cells at 5 uM incubated for 60 hrs in presence of vincristine by Annexin V-FITC/PI staining based flow cytometric analysis (reference value: 0.10%); type: functional
Eca-109/VCR [4] = assay: Induction of apoptosis in human Eca-109/VCR cells assessed as late apoptotic cells at 2.5 uM incubated for 60 hrs by Annexin V-FITC/PI staining based flow cytometric analysis (reference value: 0.70%); type: functional
Eca-109/VCR [5] = assay: Induction of apoptosis in human Eca-109/VCR cells assessed as early apoptotic cells at 2.5 uM incubated for 60 hrs by Annexin V-FITC/PI staining based flow cytometric analysis (reference value: 1.66%); type: functional
Eca-109/VCR [6] = assay: Induction of apoptosis in human Eca-109/VCR cells assessed as late apoptotic cells at 2.5 uM incubated for 60 hrs in presence of vincristine by Annexin V-FITC/PI staining based flow cytometric analysis (reference value: 0.56%); type: functional
Eca-109/VCR [7] = assay: Induction of apoptosis in human Eca-109/VCR cells assessed as necrotic cells at 2.5 uM incubated for 60 hrs by Annexin V-FITC/PI staining based flow cytometric analysis (reference value: 0.22%); type: functional
Eca-109/VCR [8] = assay: Induction of apoptosis in human Eca-109/VCR cells assessed as viable cells at 5 uM incubated for 60 hrs by Annexin V-FITC/PI staining based flow cytometric analysis (reference value: 97.4%); type: functional; conditions: read-out: Activity
Eca-109/VCR [9] = assay: Induction of apoptosis in human Eca-109/VCR cells assessed as necrotic cells at 2.5 uM incubated for 60 hrs in presence of vincristine by Annexin V-FITC/PI staining based flow cytometric analysis (reference value: 0.10%); type: functional
Eca-109/VCR [10] = assay: Induction of apoptosis in human Eca-109/VCR cells assessed as early apoptotic cells at 5 uM incubated for 60 hrs by Annexin V-FITC/PI staining based flow cytometric analysis (reference value: 1.66%); type: functional
Eca-109/VCR [11] = assay: Induction of apoptosis in human Eca-109/VCR cells assessed as viable cells at 2.5 uM incubated for 60 hrs in presence of vincristine by Annexin V-FITC/PI staining based flow cytometric analysis (reference value: 97.3%); type: functional; conditions: read-out: Activity
Eca-109/VCR [12] = assay: Induction of apoptosis in human Eca-109/VCR cells assessed as necrotic cells at 5 uM incubated for 60 hrs by Annexin V-FITC/PI staining based flow cytometric analysis (reference value: 0.22%); type: functional
Eca-109/VCR [13] = assay: Induction of apoptosis in human Eca-109/VCR cells assessed as late apoptotic cells at 5 uM incubated for 60 hrs by Annexin V-FITC/PI staining based flow cytometric analysis (reference value: 0.70%); type: functional
Eca-109/VCR [14] = assay: Cytotoxicity against human Eca-109/VCR cells assessed as reduction in cell viability at 5.0 uM incubated for 48 hrs by CCK-8 assay relative to control; type: functional
ECa-109 cell line = assay: Cytotoxicity against human Eca-109 cells incubated for 48 hrs by CCK-8 assay; type: functional, cell-based; conditions: ECa-109, 48 h
[15] = Reversal fold, ratio of vincristine IC50 to vincristine IC50 in presence of test compound for reversal of drug resistance in human Eca-109/VCR cells at 5 uM incubated for 48 hrs by CCK-8 assay; type: functional
Eca-109/VCR [16] = assay: Induction of apoptosis in human Eca-109/VCR cells assessed as viable cells at 2.5 uM incubated for 60 hrs by Annexin V-FITC/PI staining based flow cytometric analysis (reference value: 97.4%); type: functional; conditions: read-out: Activity
[17] = Apparent clearance in male Sprague-Dawley rat at 10 mg/kg, po measured after 24 hrs by UPLC-MS/MS analysis; type: ADME, organism-based; conditions: in vivo, read-out: CL(app) (converted)
Eca-109/VCR [18] = assay: Effect on p-gp expression in human Eca-109/VCR cells at 5 to 10 uM incubated for 24 hrs by Western blotting analysis; type: functional, cell-based; conditions: dose 5-10 µM
[19] = Reversal fold, ratio of doxorubicin IC50 to doxorubicin IC50 in presence of test compound for reversal of drug resistance in human Eca-109/VCR cells at 5 uM incubated for 48 hrs by CCK-8 assay; type: functional
[20] = Reversal fold, ratio of lapatinib IC50 to lapatinib IC50 in presence of test compound for reversal of drug resistance in human Eca-109/VCR cells at 5 uM incubated for 48 hrs by CCK-8 assay; type: functional
[21] = Reversal fold, ratio of mitoxantrone IC50 to mitoxantrone IC50 in presence of test compound for reversal of drug resistance in human Eca-109/VCR cells at 5 uM incubated for 48 hrs by CCK-8 assay; type: functional
Eca-109/VCR [22] = assay: Reversal of multi-drug resistance in human Eca-109/VCR cells assessed as decrease in cloning formation at 0.5 to 2 uM incubated for 8 days by crystal violet staining based analysis; type: functional, cell-based; conditions: dose 0.5-2 µM, time 8.0 day
Eca-109/VCR [23] = assay: Reversal of multi-drug resistance in human Eca-109/VCR cells assessed as decrease in cloning formation incubated for 8 days in presence of vincristine by crystal violet staining based analysis; type: functional, cell-based; conditions: dose 0.5-2 µM, time 8.0 day
[24] = Reversal fold, ratio of colchicine IC50 to colchicine IC50 in presence of test compound for reversal of drug resistance in human Eca-109/VCR cells at 5 uM incubated for 48 hrs by CCK-8 assay; type: functional
Eca-109/VCR [25] = assay: Reversal of multi-drug resistance in human Eca-109/VCR cells assessed as decrease in cloning formation at 0.5 to 2 uM incubated for 8 days in presence of vincristine by crystal violet staining based analysis; type: functional, cell-based; conditions: dose 0.5-2 µM, time 8.0 day
[26] = Reversal fold, ratio of docetaxel IC50 to docetaxel IC50 in presence of test compound for reversal of drug resistance in human Eca-109/VCR cells at 5 uM incubated for 48 hrs by CCK-8 assay; type: functional

SMILES: COc1ccc(CCN(C)CCCC(C#N)(c2ccc(OC)c(OC)c2)C(C)C)cc1OC (configuration not stated) [VERAPAMIL]
- Activity (Eca-109/VCR [1]): 5.95%
- viability at 5 µM (Eca-109/VCR [2]): 75.4%
- Activity (Eca-109/VCR [3]): 0.34%
- Activity (Eca-109/VCR [4]): 0.55%
- Activity (Eca-109/VCR [5]): 1.19%
- Activity (Eca-109/VCR [6]): 0.85%
- Activity (Eca-109/VCR [7]): 0.2%
- viability at 5 µM (Eca-109/VCR [8]): 96.2%
- Activity (Eca-109/VCR [9]): 0.17%
- Activity (Eca-109/VCR [10]): 1.12%
- viability at 2.5 µM (Eca-109/VCR [11]): 96%
- Activity (Eca-109/VCR [12]): 0.13%
- Activity (Eca-109/VCR [13]): 0.72%
- Cell viability (% of control) (Eca-109/VCR [14]): 98.9%

SMILES: COc1cccc2c1C(=O)c1c(O)c3c(c(O)c1C2=O)C[C@@](O)(C(=O)CO)C[C@@H]3O[C@H]1C[C@H](N)[C@H](O)[C@H](C)O1 [DOXORUBICIN]
- IC50 (ECa-109 cell line): 2.07 µM

SMILES: COc1cc2c(cc1OC)C(Cc1ccc(OC)c(OC(=O)c3ccc4ccccc4c3)c1)N(C)CC2 (configuration not stated)
- Ratio IC50 [15]: 107.9
- Cell viability (% of control) (Eca-109/VCR [14]): 101.1%

SMILES: COc1cc2c(cc1OC)C(Cc1ccc(OCC3CCCCC3)c(OC)c1)N(C)CC2 (configuration not stated)
- Ratio IC50 [15]: 280
- Cell viability (% of control) (Eca-109/VCR [14]): 87.7%

- CL/F [17]: 393 L/h/kg
SMILES: COc1cc2c(cc1OC)C(Cc1ccc(OS(=O)(=O)c3ccccc3[N+](=O)[O-])c(OC)c1)N(C)CC2 (configuration not stated)
- Activity (Eca-109/VCR [1]): 9.21%
- viability at 2.5 µM (Eca-109/VCR [16]): 96.9%
- viability at 5 µM (Eca-109/VCR [2]): 94.5%
- Activity (Eca-109/VCR [18]): Active
- Ratio IC50 [19]: 29.4
- Activity (Eca-109/VCR [3]): 0.7%
- Activity (Eca-109/VCR [4]): 0.53%
- Ratio IC50 [15]: 467.7
- Activity (Eca-109/VCR [5]): 2.19%
- Ratio IC50 [20]: 1
- Activity (Eca-109/VCR [6]): 5.47%
- Activity (Eca-109/VCR [7]): 0.29%
- Ratio IC50 [21]: 10
- viability at 5 µM (Eca-109/VCR [8]): 97.1%
- Activity (Eca-109/VCR [9]): 0.63%
- Activity (Eca-109/VCR [10]): 1.61%
- viability at 2.5 µM (Eca-109/VCR [11]): 75.4%
- Activity (Eca-109/VCR [22]): inactive
- Activity (Eca-109/VCR [23]): Dose-dependent-effect
- Ratio IC50 [24]: 98.2
- Activity (Eca-109/VCR [13]): 1%
- Activity (Eca-109/VCR [25]): Active; Compound Showed Superior Reversal Activity Compared To Oy-101
- Cell viability (% of control) (Eca-109/VCR [14]): 99.1%
- Ratio IC50 [26]: 149.7

SMILES: C=CCCCCOc1cc(CC2c3cc(OC)c(OC)cc3CCN2C)ccc1OC (configuration not stated)
- Ratio IC50 [15]: 15.2
- Cell viability (% of control) (Eca-109/VCR [14]): 98.2%

SMILES: COc1cc2c(cc1OC)C(Cc1ccc(OS(=O)(=O)c3ccccc3F)c(OC)c1)N(C)CC2 (configuration not stated)
- Ratio IC50 [15]: 274.3
- Cell viability (% of control) (Eca-109/VCR [14]): 98.2%

SMILES: C=CCCCCOc1ccc(CC2c3cc(OC)c(OC)cc3CCN2C)cc1OC (configuration not stated)
- Ratio IC50 [15]: 1.9
- Cell viability (% of control) (Eca-109/VCR [14]): 103.4%

SMILES: COc1cc2c(cc1OC)C(Cc1ccc(OC)c(OS(=O)(=O)c3ccc([N+](=O)[O-])cc3)c1)N(C)CC2 (configuration not stated)
- Ratio IC50 [15]: 141.5
- Cell viability (% of control) (Eca-109/VCR [14]): 101.5%
